By IC50 is commonly meant the point on the concentration scale where inhibition reaches its midpoint.

Structures are written as SMILES.

IC50 data for one compound are collected here from publication PMC6291754 (Frontiers in Microbiology, 2018).

Holding throughout (assay): microbe, parasite or virus in culture
Test [1] concerns B/Victoria-lineage viruses. Format: cell-based. The conditions noted are these: Influenza B virus, read-out: median IC50.
The next test has as its system A(H1N1)pdm09 viruses. Format: cell-based, influenza A(H1N1)pdm09 virus. The conditions noted are these: Influenza A virus, H1N1, read-out: median IC50.
Test [2] relates to B/Yamagata-lineage viruses. It counts as cell-based. The conditions noted are these: Influenza B virus, read-out: median IC50.
The next test relates to A(H3N2) viruses. It counts as cell-based. Particulars: Influenza A virus, H3N2, read-out: median IC50.

`O=C1c2c(O)c(=O)ccn2N([C@@H]2c3ccccc3SCc3c2ccc(F)c3F)[C@@H]2COCCN12` [Baloxavir, baloxavir acid]: the half-maximal inhibitory concentration (IC50) in test [1] was determined as 3.42 nM; in the test on A(H1N1)pdm09 viruses, 0.28 nM; in test [2], 2.43 nM; with A(H3N2) viruses it was 0.16 nM.
